Measured values from patent publication US20190255048A1, “PYRIMIDINE COMPOUND OR SALT THEREOF IN APPLICATION FOR MANUFACTURING PHARMACEUTICAL PRODUCT FOR PREVENTING AND/OR TREATING FLT3-RELATED DISEASE OR DISORDER” (SHENZHEN HAIBIN PHARMACEUTICAL CO., LTD, priority 2016, published 2019).

Columns and labels:
[1] = system: mouse BaF3-FLT3-ITD-D835Y (stably expressing FLT3/ITD D835Y mutant activated kinase); assay: Effects on proliferation of cells (Cell Titer-Glo), BaF3-FLT3-ITD-D835Y; format: cell-based; settings: incubated for 72 hours
Text: (§1) This example tested the effects of the compounds of the present invention (the compound shown in Formula (I), hydrochloride salt, phosphate, mesylate, lactate, acetate, sulphate, and hydrobromide thereof prepared in EXAMPLES 1-8 respectively) on proliferation of tumor cells, and further evaluated the inhibitory effects of the compounds on proliferation of tumor cells and selectivity of the compounds in inhibiting proliferation of tumor cells.
(9) mouse BaF3-FLT3-ITD-D835Y (stably expressing FLT3/ITD D835Y mutant activated kinase);
(§2) The compounds at different concentration (0.000508 μM, 0.00152 μM, 0.00457 μM, 0.0137 μM, 0.0411 μM, 0.123 μM, 0.370 μM, 1.11 μM, 3.33 μM, 10 μM in DMSO) were added to the above-mentioned cells respectively, incubated for 72 hours, Cell Titer-Glo (Promega, United States of America) Chemiluminescence Kit was used to quantify ATP in living cells to detect the number of living cells, the results were shown as Table 3

[2] = system: mouse TEL-FLT3-BaF3 (stably expressing FLT3 kinase); assay: Effects on proliferation of cells (Cell Titer-Glo), TEL-FLT3-BaF3; format: cell-based; settings: TEL-FLT3-BaF3, incubated for 72 hours
Text: as §1
(8) mouse TEL-FLT3-BaF3 (stably expressing FLT3 kinase);
as §2

FLT3 kinase = target: T1, FLT3 kinase (Homo sapiens, UniProt P36888); assay: Activity of inhibiting FLT3 kinase (fluorescein labeled peptide kinase assay); format: biochemical; settings: in vitro kinase assay, 28° C.
T1 sequence (P36888 27-993): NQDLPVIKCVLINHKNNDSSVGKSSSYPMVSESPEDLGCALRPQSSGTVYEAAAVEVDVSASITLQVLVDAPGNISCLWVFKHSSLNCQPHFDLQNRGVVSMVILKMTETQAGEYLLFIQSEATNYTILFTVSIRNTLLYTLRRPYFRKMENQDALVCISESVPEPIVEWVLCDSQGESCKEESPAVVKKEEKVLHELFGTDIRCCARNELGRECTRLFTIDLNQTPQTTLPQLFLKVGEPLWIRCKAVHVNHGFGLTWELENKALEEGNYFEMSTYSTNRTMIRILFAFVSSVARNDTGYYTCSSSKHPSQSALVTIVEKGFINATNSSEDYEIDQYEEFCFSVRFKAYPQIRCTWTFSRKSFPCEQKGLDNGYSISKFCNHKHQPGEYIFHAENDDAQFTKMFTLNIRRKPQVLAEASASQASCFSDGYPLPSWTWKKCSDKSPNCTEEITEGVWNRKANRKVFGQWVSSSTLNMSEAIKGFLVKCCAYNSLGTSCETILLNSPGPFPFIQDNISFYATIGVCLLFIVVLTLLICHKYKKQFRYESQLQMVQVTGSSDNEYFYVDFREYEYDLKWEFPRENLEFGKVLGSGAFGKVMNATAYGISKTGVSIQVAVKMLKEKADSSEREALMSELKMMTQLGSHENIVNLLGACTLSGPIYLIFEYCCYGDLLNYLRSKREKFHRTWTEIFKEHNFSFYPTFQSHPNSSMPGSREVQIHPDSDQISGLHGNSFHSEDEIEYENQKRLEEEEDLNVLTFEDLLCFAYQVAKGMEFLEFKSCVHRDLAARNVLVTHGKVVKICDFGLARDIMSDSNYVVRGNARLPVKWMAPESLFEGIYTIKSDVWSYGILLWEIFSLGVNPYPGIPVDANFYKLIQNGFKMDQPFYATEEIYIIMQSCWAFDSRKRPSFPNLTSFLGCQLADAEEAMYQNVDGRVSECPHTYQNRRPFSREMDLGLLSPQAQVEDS
Method: Activity of Inhibiting FLT3 Kinase
1. Preparation of 1 × Kinase Buffer and Termination Buffer:
(1) MnCl2-free 1× kinase buffer: 50 mM HEPES, pH 7.5, 0.0015% Brij-35, 10 mM MgCl2, 2 mM DTT;
(2) Termination buffer: 100 mM HEPES, pH 7.5, 0.015% Brij-35, 0.2% Coating Reagent #3, 50 mM EDTA.
2. Preparation of compounds for testing kinase: the compounds are diluted continuously.
(1) the compound was diluted to 50 times the maximum final concentration with 100% DMSO. […] of the solution containing the compound at this concentration was transferred to one hole of 96-well plate;
(2)10 concentrations of compounds were prepared by diluting 20 mL original solution with 60 mL DMSO;
(3) […] solution of 100% DMSO was added into two empty holes as compound-free control and enzyme-free control; (4) a transitional plate was prepared, 10 mL compounds at different concentrations were transferred from the original plate to the transitional plate respectively, 90 mL 1× kinase buffer was added, and then mixed under oscillation for 10 minutes;
(5) preparation of an experimental plate: 5 mL solution containing compounds was transferred from the hole of the transitional plate of the 96-well plate to the corresponding hole of 384-well plate.
(1) Preparation of 2.5× enzyme solution: enzyme was added to the 1× kinase buffer;
(2) Preparation of 2.5× peptide solution: a fluorescein labeled peptide and ATP were added to the 1× kinase buffer;
(3) 10 mL 2.5× enzyme solution was added to an experimental 384-well plate containing the compound solution with a concentration of 10% containing 5 mL DMSO and incubated at room temperature for 10 minutes;
(4) 10 mL 2.5× peptide solution was added to an experimental 384-well plate;
(5) kinase reaction and termination: Incubation was carried out at 28° C. for certain time, 25 mL termination buffer was added to terminate the reaction.
Data was read and collected.
(1) detected data was copied and converted
(2) data was converted to inhibitory rate
Inhibitory rate=(Maximum Value−Sample Value)/(Maximum Value−Minimum Value)*100;
wherein “Maximum Value” is the value of DMSO control; “Minimum Value” is the value of kinase-free control hole.
(3) the data was input an analysis software to obtain IC50 value.

[3] = system: human acute monocytic leukemia cell strain MV4-11 (expressing FLT3/ITD mutant gene); assay: Effects on proliferation of tumor cells (Cell Titer-Glo), MV4-11; format: cell-based; settings: MV4-11, incubated for 72 hours
Text: as §1
(1) human acute monocytic leukemia cell strain MV4-11 (expressing FLT3/ITD mutant gene);
as §2

[4] = system: human acute myeloid leukemia cell strain MOLM-13 (expressing FLT3/ITD mutant gene and wild-type FLT3 gene); assay: Effects on proliferation of tumor cells (Cell Titer-Glo), MOLM-13; format: cell-based; settings: MOLM-13, incubated for 72 hours
Text: as §1
(2) human acute myeloid leukemia cell strain MOLM-13 (expressing FLT3/ITD mutant gene and wild-type FLT3 gene);
as §2

[5] = system: human acute myeloid leukemia cell strain MOLM-14 (expressing FLT3/ITD mutant gene and wild-type FLT3 gene); assay: Effects on proliferation of tumor cells (Cell Titer-Glo), MOLM-14; format: cell-based; settings: MOLM-14, incubated for 72 hours
Text: as §1
(3) human acute myeloid leukemia cell strain MOLM-14 (expressing FLT3/ITD mutant gene and wild-type FLT3 gene);
as §2

[6] = system: human acute myeloid leukemia cell strain U937 (expressing wild-type FLT3 gene); assay: Effects on proliferation of tumor cells (Cell Titer-Glo), U937; format: cell-based
Text: as §1
(5) human acute myeloid leukemia cell strain U937 (expressing wild-type FLT3 gene);
as §2

[7] = system: mouse TEL-BaF3-FLT3/ITD (stably expressing FLT3/ITD mutant activated kinase); assay: Effects on proliferation of cells (Cell Titer-Glo), TEL-BaF3-FLT3/ITD; format: cell-based; settings: incubated for 72 hours
Text: as §1
(6) mouse TEL-BaF3-FLT3/ITD (stably expressing FLT3/ITD mutant activated kinase);
as §2

[8] = system: mouse BaF3-FLT3-ITD-F691L (stably expressing FLT3/ITD F691L mutant activated kinase); assay: Effects on proliferation of cells (Cell Titer-Glo), BaF3-FLT3-ITD-F691L; format: cell-based; settings: incubated for 72 hours
Text: as §1
(10) mouse BaF3-FLT3-ITD-F691L (stably expressing FLT3/ITD F691L mutant activated kinase).
as §2

[9] = system: mouse TEL-BaF3-FLT3-D835Y (stably expressing FLT3D835Y mutant activated kinase); assay: Effects on proliferation of cells (Cell Titer-Glo), TEL-BaF3-FLT3-D835Y; format: cell-based; settings: incubated for 72 hours
Text: as §1
(7) mouse TEL-BaF3-FLT3-D835Y (stably expressing FLT3D835Y mutant activated kinase);
as §2

[10] = system: human acute myeloid leukemia cell strain OCI-AML-3 (expressing FLT3A680V mutant gene); assay: Effects on proliferation of tumor cells (Cell Titer-Glo), OCI-AML-3; format: cell-based; settings: OCI-AML-3, incubated for 72 hours
Text: as §1
(4) human acute myeloid leukemia cell strain OCI-AML-3 (expressing FLT3A680V mutant gene);
as §2

[11] = system: subcutaneous xenograft tumor of human MV-4-11; assay: Therapeutic effects on subcutaneous xenograft tumor of human MV-4-11 in nude mice; format: in vivo, BALB/cA-nude mice; settings: MV-4-11 subcutaneous xenograft, 15 mg/kg intraperitoneal injection, 3 times a day for 21 days
Method: Preparation of test samples: all samples were prepared with 5% anhydrous ethanol, 5% Cremophor EL and 90% physiological saline.
Animals: BALB/cA-nude mice, 6-7 weeks, female ♀ purchased from Shanghai Lingchang Biotechnology Co., Ltd. Production license number was SC×K(Hu)2013-0018; animal certification number was 2013001810589.
Feeding environment: SPF Level.
Experiment steps: human acute myeloid leukemia cells MV-4-11 were inoculated subcutaneously in nude mice, after the tumor grows to 80-150 mm^3, animals were randomly divided into groups with 6 mice each group. The dosage was 15 mg/kg, the drugs were administrated by intraperitoneal injection, 3 times a day for 21 days. The volume of tumor was measured, the weight of mouse was weighed and the data were recorded.
The formula for calculating the volume of tumor (V) was: […]
Wherein a and b represented length and width respectively.
T/C (%)=(T−T0)/(C−C0)×100
Wherein T and C were the volume of tumor when the experiment was completed; T0 and C0 were the volume of tumor when the experiment was started.
The inhibited rate of tumor was calculated, the results were shown as Table 4.

Structure (SMILES)	IC50 [1] [µM]	IC50 [2] [µM]	IC50 (FLT3 kinase) [nM]	IC50 [3] [µM]	IC50 [4] [µM]	IC50 [5] [µM]	IC50 ([6]; U937, incubated for 72 hours) [µM]	IC50 [7] [µM]	IC50 [8] [µM]	IC50 [9] [µM]	IC50 [10] [µM]	Inhibited Rate of Tumor (%) [11] [%]	also measured
CC(=O)O.Nc1sc(-c2c(F)cccc2F)nc1C(=O)Nc1cncnc1OCC1CCNCC1 [Acetate of compound of Formula (I)]	0.53	0.03	27	0.41	0.43	0.12	2.09	0.02	0.94	0.32	0.32	77	–
Nc1sc(-c2c(F)cccc2F)nc1C(=O)Nc1cncnc1OCC1CCNCC1 [Compound of Formula (I), 5-amino-2-(2,6-difluorophenyl)-N-(4-(piperidine-4-methoxy)pyrimidine-5-) thiazole-4-formamide]	–	–	40	–	–	–	–	–	–	–	–	66	IC50 ([1]; Mus musculus): 0.61 µM; IC50 ([2]; Mus musculus): 0.12 µM; IC50 ([3]; Homo sapiens): 0.51 µM; IC50 ([4]; Homo sapiens): 0.52 µM; IC50 ([5]; Homo sapiens): 0.27 µM; IC50 ([6]; Homo sapiens, U-937, U937, incubated for 72 hours): ≥ 13.4 µM; IC50 ([7]; Mus musculus): 0.11 µM; IC50 ([8]; Mus musculus): 0.93 µM; IC50 ([9]; Mus musculus): 0.32 µM; IC50 ([10]; Homo sapiens): 0.34 µM
Br.Nc1sc(-c2c(F)cccc2F)nc1C(=O)Nc1cncnc1OCC1CCNCC1 [Hydrobromide of compound of Formula (I)]	0.66	0.16	39	0.42	0.51	0.13	4.66	0.02	0.76	0.31	0.11	66	–
